The results in this text go back to patent US20250099420A1, “SMALL MOLECULE MODULATORS OF GPR139 COMPLEX” (University of Florida Research Foundation, Incorporated, priority 2022, published 2025).

Like-named read-outs stand apart in the source and are kept apart here. A value given as a limit tells only on which side of the number the result lay.

For data set [1], the system named is parental HEK cells. Description: HEK parental Agonist Counterscreen Assay (non-transfected cells). Type of data set: cell-based. The conditions noted are these: for Lipophilic Efficiency (logD) / Lipophilic Efficiency (logP) / Averaged Max % Response (±St. Dev.): HEK Agonist Activity section; for Averaged Max % Response (±St. Dev.): activity relative to known control; for EC50: HEK Agonist Activity section of Table 4 (parental HEK counterscreen). The source says:
The high control for the agonist counterscreen was Forskolin not acetylcholine.
Background: Counterscreens check selectivity or assay interference.

Data set [2] addresses T1, GPR139 (Homo sapiens, UniProt Q6DWJ6).
T1 sequence (Q6DWJ6 1-353): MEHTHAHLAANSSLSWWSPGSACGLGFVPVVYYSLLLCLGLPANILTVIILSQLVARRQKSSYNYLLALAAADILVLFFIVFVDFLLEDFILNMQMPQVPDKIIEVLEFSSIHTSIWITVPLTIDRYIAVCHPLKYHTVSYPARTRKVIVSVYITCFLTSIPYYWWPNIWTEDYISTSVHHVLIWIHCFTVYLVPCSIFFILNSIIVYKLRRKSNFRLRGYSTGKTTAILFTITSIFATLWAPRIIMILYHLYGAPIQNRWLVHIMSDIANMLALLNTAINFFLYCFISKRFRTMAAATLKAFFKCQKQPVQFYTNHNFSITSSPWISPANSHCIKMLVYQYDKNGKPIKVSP
The data set can be described thus: GPR139 Agonist titration / agonist counterscreen assay (calcium detection, HEK-GPR139 cells). Type of data set: cell-based. The arrangement: expressed in transfected cells; host or cells: HEK Aequorin cells, Maxcyte transient transfection. The conditions noted are these: GPR139 Agonist Activity; for Averaged Max % Response (±St. Dev.): activity relative to known control; for EC50: read-out: EC50. How it is done: GPR activity was assessed using a calcium detection assay. […] Negative control samples were treated with DMSO. […] Intracellular calcium was measured using Calcium 5.

[3] abbreviates: values printed in E-notation without unit.

In general, EC50 refers to the concentration at which the effect is half-maximal. On to `Cc1ccc(CCNC(=O)CN2CCN(Cc3ccccc3Cl)C2=O)cc1` [SR-01000125464], for which the figures for the “Lipophilic Efficiency (logD)” value in data set [1] and in data set [2] (based on logD) were 1.74 and 3.74, respectively. Further, the results for the “Lipophilic Efficiency (logP)” value in data set [1] and in data set [2] (based on logP) were 1.74 and 3.74, respectively. The results for the “Averaged Max % Response (±St. Dev.)” value in data set [1] and in data set [2] were 5.57 ± 17.96% and 83.25 ± 20.00%, respectively. Also, the EC50 was more than 14100 nM in data set [1] (Homo sapiens, HEK293) and 143 nM in data set [2] (setting [3]). In data set [2] (fitted dose-response curve), the “Hill Slope” value is on record as 0.73. For the same molecule, the “Efficiency Ligand” value in data set [2] (ligand efficiency) is listed as 0.35.
Regarding `O=C(CN1CCN(Cc2ccccc2F)C1=O)NCCc1ccc(Cl)cc1` [SR-01000125584], the “Lipophilic Efficiency (logD)” value in data set [1] came to 2.11; in data set [2] (based on logD) it was 4.59. Also, the figures for the “Lipophilic Efficiency (logP)” value in data set [1] and in data set [2] (based on logP) were 2.11 and 4.59, respectively. The “Averaged Max % Response (±St. Dev.)” value in data set [1] is on record as 0.37 ± 17.31%; in data set [2], 103.06 ± 30.95%. Moreover, the EC50 was more than 14100 nM in data set [1] (Homo sapiens, HEK293) and 47.1 nM in data set [2] (setting [3]). The “Hill Slope” value in data set [2] (fitted dose-response curve) turned out to be 0.81. In data set [2] (ligand efficiency), the “Efficiency Ligand” value was found to be 0.38.
On to `O=C(CN1CCN(Cc2ccc(F)cc2Cl)C1=O)NCc1ccccc1Cl` [SR-01000125622], for which the “Lipophilic Efficiency (logD)” value in data set [1] is reported as 1.80; in data set [2] (based on logD), 3.63. Moreover, the “Lipophilic Efficiency (logP)” value amounted to 1.80 in data set [1] and 3.63 in data set [2] (based on logP). Besides, the “Averaged Max % Response (±St. Dev.)” value is −10.20 ± 10.64% in data set [1] and 99.14 ± 16.79% in data set [2]. The EC50 in data set [1] (Homo sapiens, HEK293) is more than 14100 nM; in data set [2] (setting [3]), 208 nM. Also, the “Hill Slope” value in data set [2] (fitted dose-response curve) amounted to 0.99. For the same molecule, in data set [2] (ligand efficiency), the “Efficiency Ligand” value was 0.35.
With `Cc1ccc(CN2CCN(CC(=O)NCCc3ccc(Cl)cc3)C2=O)c(Cl)c1` [SR-01000125626], in data set [1], the “Lipophilic Efficiency (logD)” value was 1.51, the “Lipophilic Efficiency (logP)” value worked out at 1.51 and the “Averaged Max % Response (±St. Dev.)” value was −27.02 ± 6.51%. For the same molecule, the EC50 in data set [1] (Homo sapiens, HEK293) was more than 14100 nM. Moreover, in data set [2], the “Efficiency Ligand” value is 0.30, the “Hill Slope” value worked out at 0.73, the “Lipophilic Efficiency (logD)” value is 2.72 and the “Lipophilic Efficiency (logP)” value was determined as 2.72. The “Averaged Max % Response (±St. Dev.)” value in data set [2] came to 79.66 ± 15.90%.
`CC1CCCC(NC(=O)CN2CCN(Cc3ccc(F)cc3Cl)C2=O)C1C` (stereo not shown) [SR-01000125648]: in data set [1], the “Lipophilic Efficiency (logD)” value came out at 1.67, the “Lipophilic Efficiency (logP)” value is listed as 1.67 and the “Averaged Max % Response (±St. Dev.)” value amounted to 8.17 ± 5.14%. Moreover, the EC50 in data set [1] (Homo sapiens, HEK293) is more than 14100 nM. Besides, in data set [2], the “Efficiency Ligand” value is listed as 0.33, the “Hill Slope” value was 0.84, the “Lipophilic Efficiency (logD)” value is 3.13 and the “Lipophilic Efficiency (logP)” value amounted to 3.13. Besides, the “Averaged Max % Response (±St. Dev.)” value in data set [2] worked out at 98.80 ± 20.98%. The EC50 in data set [2] (HEK-GPR139 cells) was 490 nM.
For the molecule `O=C(C1CC1)N1CCc2cc(S(=O)(=O)NCC3COc4ccccc4O3)ccc21` (stereo not shown) [SR-01000126429], in data set [1], the “Lipophilic Efficiency (logD)” value was 2.75, the “Lipophilic Efficiency (logP)” value turned out to be 2.75 and the “Averaged Max % Response (±St. Dev.)” value is 25.18 ± 6.22%. Besides, the EC50 in data set [1] (Homo sapiens, HEK293) is more than 14100 nM. Also, in data set [2], the “Efficiency Ligand” value turned out to be 0.29, the “Hill Slope” value came out at 1.58, the “Lipophilic Efficiency (logD)” value turned out to be 3.90 and the “Lipophilic Efficiency (logP)” value is 3.90. Besides, in data set [2], the “Averaged Max % Response (±St. Dev.)” value was determined as 78.64 ± 16.53%. Moreover, the EC50 in data set [2] (HEK-GPR139 cells) was 1000 nM.
Turning to `CN(C)C(CNC(=O)Nc1ccc(Cl)c(Cl)c1)c1cccnc1` (stereo not shown) [SR-01000127953], the “Lipophilic Efficiency (logD)” value was 2.35 in data set [1] and 4.13 in data set [2] (based on logD). In addition, the “Lipophilic Efficiency (logP)” value in data set [1] is on record as 1.96; in data set [2] (based on logP) it was 3.73. Moreover, the “Averaged Max % Response (±St. Dev.)” value in data set [1] stood at 10.89 ± 5.56%; in data set [2] it was 96.92 ± 13.57%. In addition, the EC50 in data set [1] (Homo sapiens, HEK293) was more than 14100 nM; in data set [2] (setting [3]) it was 236 nM. Further, in data set [2] (fitted dose-response curve), the “Hill Slope” value stood at 0.56. The “Efficiency Ligand” value in data set [2] (ligand efficiency) was found to be 0.40.
Turning to `Cc1ccccc1-c1nc(C[S+]([O-])CC(=O)NC(C)CCc2ccccc2)c(C)o1` (stereo not shown) [SR-01000129545], in data set [1], the “Lipophilic Efficiency (logD)” value was 1.11, the “Lipophilic Efficiency (logP)” value stood at 1.09, the EC50 is more than 14100 nM and the “Averaged Max % Response (±St. Dev.)” value stood at 32.45 ± 12.40%. Further, in data set [2], the “Efficiency Ligand” value turned out to be 0.30, the “Hill Slope” value stood at 0.47, the “Lipophilic Efficiency (logD)” value is listed as 2.69 and the “Lipophilic Efficiency (logP)” value came to 2.68. For the same molecule, the “Averaged Max % Response (±St. Dev.)” value in data set [2] is recorded as 92.13 ± 1.72%. Moreover, in data set [2] (HEK-GPR139 cells), the EC50 came to 365 nM.
